Measurements: publication PMC7002685, “Inhibition of vascular calcification by inositol phosphates derivatized with ethylene glycol oligomers” (Nature Communications, 2020)
Several values for one entry are separate records, joined by “and”; a condition that tells them apart may be missing. Equal entries are not always repeated. Where two headings read alike, the source gives them in different places.

How the values were obtained:
CPP2 = assay: Competitive 18F-NaF binding assay on CPPs; design: species or system human; details: for IC50: CPP2 20 µg Ca/mL, 18F-NaF 1 nM, 1 h RT, read-out: IC50 (reduction of 18F binding to CPP)
Experimental: A ^18F-NaF-based competitive binding assay was developed to indirectly assess the inhibitor affinity (IC50) to CPPs. The uptake mechanism of ^18F-NaF, a marker of micro-calcification activity by chemisorption onto hydroxyapatite crystals, is contingent on the rapid exchange of hydroxyl (OH^−) groups present on the hydroxyapatite surface (Ca5(PO4)3(OH)) by ^18F^− to form fluoroapatite (Ca5(PO4)3^18F)[34],[54].
Triplicate aliquots of CPP2s (20 µg Ca/mL) in 100 μL assay buffer (100 mM HBS, pH 7.4 (RT)) were incubated for 1 h at RT in the presence of increasing concentrations of compounds in 50 μL Milli-Q water and ^18F-NaF (1 nM) in 50 μL assay buffer, resulting in a total incubation volume of 200 μL (^18F-NaF was prepared using a FASTlab synthesizer (GE Healthcare, Little Chalfont, UK) and commercially available ^18F-NaF cassettes (GE Healthcare)). Maximum radiotracer binding was determined by incubating CPP2s with ^18F-NaF (1 nM) only. The reaction was terminated by rapid filtration through a SOLAμ™ SPE plate (HRP 2 mg/mL 96-well plate, 22 μm; Thermo Fisher Scientific). SPE individual column matrices were washed twice rapidly in assay buffer and radioactivity on the filters determined by an automatic gamma counter (Wizard2 Gamma Counter, Perkin Elmer, Waltham, MA, USA). […] IC50 is the concentration of […] that gives a response half way between the bottom and top parts of the curve. ^18F-NaF micro-PET/computed tomography (micro-PET/CT) was employed for ex vivo analysis of (OEG2)2-IP4’s engagement to target calcified human tissue explants, as described previously. […] Following incubations, samples were washed twice in 0.1 M PBS (1 min per wash) and mounted on a Petri dish for micro-PET/CT imaging (nanoPET/CT, Mediso, Budapest, Hungary). In total, seven samples from the femoral arteries of three patients with ischemic peripheral disease and three samples from native aortic valves of three patients undergoing valve replacement surgery were used. All samples were collected at the time of surgery and stored in 4% paraformaldehyde at RT until further use. All patients gave their written, informed consent. All procedures had local ethical approval (06/S0703/110, 12/WS/0227, 09/S0703/118, and 12/NW/0036). All studies were approved by East and West Scotland Research Ethics Committees, and all experiments were conducted according to the principles expressed in the Declaration of Helsinki.

CPPs = assay: TEM and selected area electron diffraction of CPPs; design: species or system human
Experimental: To confirm the screening assay data, the hydrodynamic diameter of the CPPs was measured by dynamic light scattering (DLS). […] The CPP2 size deduced by DLS is slightly larger than the size derived from transmission electron microscopy (TEM) (Supplementary Figs. 4c and 7a), the latter being in line with previous work[52].
CPPs were prepared (vide supra) and TEM was performed similar to previous reports. […] […] Herein, cell culture grade 50 mM HEPES (1 M HEPES, 5630056, Thermo Fischer Scientific) was used for washing steps, to avoid high solvent and particle background in TEM. In brief, CPPs at 0.5 mg calcium/mL were drop-casted onto a copper grid, 300 mesh, covered with a continuous 8-nm-thick carbon film. The TEM data were collected with an FEI Tecnai F30 FEG TEM operated at 300 kV acceleration voltage and equipped with a Gatan 749 MultiScan CCD camera (Thermo Fischer Scientific). The bright-field images were collected at ×39,000 magnification using a 10-μm objective aperture. To assess the crystallinity of the sample selected area diffraction patterns were collected in parallel at a camera length of 300 mm. The radii of the rings in the diffraction pattern were measured (1/nm) and the associated interplanar d-spacings (nm) were calculated.

[1] = PK in healthy rats, i.v. bolus; type: in vivo, male Sprague-Dawley rats; details: for Clobs / plasma concentration / Cmax / AUC(0-t) / MRT: 10 mg/kg i.v.; for half-life / Cmax / Vd / AUC(0-t) / MRT: Sprague-Dawley, rat, iv; for half-life: healthy male rats; for Cmax / Vd / AUC(0-t) / MRT: male; for Vd: read-out: apparent volume of distribution; for MRT: read-out: mean residence time (MRT) (converted)
Experimental: All PK studies in healthy animals were performed by the contract research organization Aphad S.r.l. (Milan, Italy). In all studies, compounds were administered as a salt, and the doses and plasma quantitation refer to the acid form. PK parameters listed in Supplementary Table 13 were derived from measured plasma concentrations applying noncompartmental analysis. Concentration data were extrapolated using the software Analyst™ 6.1 (Applied Biosystems, Foster City, CA, USA), the area under the plasma concentration vs. time curve (AUC) was calculated by linear trapezoidal rule using PK solver 2.0 add-in for Microsoft Excel 2007 (available for download in[83]), and a uniform weight was performed as a first general approach.
To study PK in healthy animals, male Sprague-Dawley rats (Harlan, Correzzana, Italy) were housed up to three per cage with free access to water and standard chow (pellets 12 mm, global diet 2018 certificate, Mucedola, Srl, Settimo Milanese, Italy), and submitted to a 12-h light/dark cycle. Animals were administered i.v. 10 mg/kg of (OEG2)2-IP4 in saline solution i.v. (30 s bolus, 5 mL/kg) and s.c. (5 mL/kg), respectively, in three animals per route and treatment. […] Plasma calcium concentration was determined in pre-dose samples and in t = 30 min samples of both acute and chronic treatments using the calcium colorimetric assay. Blood samples of 100 µL were drawn at several time points from the caudal vein, centrifuged at (3000 × g, 4 °C, 10 min) and stored at −80 °C until analysis by liquid chromatography–tandem mass spectrometry (LC-MS/MS).
The column used for (OEG2)2-IP4 was Kinetex C8 50 × 2.1 mm, 2.6 μm 100 A (Phenomenex, Basel, Switzerland), thermostated at 35 °C. […] Quantitation was carried out as total ion current on the sum of the MRM transitions. […] Samples were agitated 5 min on a […] orbital shaker and centrifuged (16,000 × g, 5 °C, 20 min). […] Samples were then subjected to LC-MS/MS. Rat PK samples were prepared for analysis in an analogous manner as done for spiked samples. The lower limit of quantification (LLOQ) and detection (LOD) in rat plasma for (OEG2)2-IP4 were 25 and 10 ng/mL, respectively. The upper limit of quantification (ULOQ) and detection was 5000 ng/mL.

O=P(O)(O)O[C@H]1[C@H](OP(=O)(O)O)[C@@H](OP(=O)(O)O)[C@H](OP(=O)(O)O)[C@@H](OP(=O)(O)O)[C@H]1OP(=O)(O)O [IP6, myo-Inositol hexakisphosphate]
IC50 (CPP2): 3.96 µM | 18F-NaF percentage binding to CPP2 (CPP2; concentration 0.75 (unit not given)): 94.1339% and 121.154% and 102.128% | 18F-NaF percentage binding to CPP2 (CPP2; concentration 2.5 (unit not given)): 93.0288% and 114.326% and 101.486% | 18F-NaF percentage binding to CPP2 (CPP2; concentration 7.5 (unit not given)): 92.4582% and 110.79% and 97.129% | 18F-NaF percentage binding to CPP2 (CPP2; concentration 25 (unit not given)): 95.6995% and 114.564% and 112.333% | 18F-NaF percentage binding to CPP2 (CPP2; concentration 75 (unit not given)): 85.0945% and 107.18% and 113.212% | 18F-NaF percentage binding to CPP2 (CPP2; concentration 250 (unit not given)): 87.0585% and 108.409% and 103.034% | 18F-NaF percentage binding to CPP2 (CPP2; concentration 750 (unit not given)): 87.2718% and 107.684% and 96.5293% | 18F-NaF percentage binding to CPP2 (CPP2; concentration 1750 (unit not given)): 100.593% and 62.29% and 66.5713% | 18F-NaF percentage binding to CPP2 (CPP2; concentration 2500 (unit not given)): 85.021% and 85.5383% and 72.51% | 18F-NaF percentage binding to CPP2 (CPP2; concentration 7500 (unit not given)): 76.4111% and 59.8209% and 66.7993% | 18F-NaF percentage binding to CPP2 (CPP2; concentration 25000 (unit not given)): 66.3738% and 68.2115% and 51.6692% | 18F-NaF percentage binding to CPP2 (CPP2; concentration 75000 (unit not given)): 48.1457% and 55.4993% and 51.2901% | 18F-NaF percentage binding to CPP2 (CPP2; concentration 250000 (unit not given)): 52.9543% and 43.7782% and 27.6001% | 18F-NaF percentage binding to CPP2 (CPP2; concentration 750000 (unit not given), replicates Fig. 2c): 50.6666% and 38.054% and 33.4917% | CPP morphology (TEM) (CPPs; 100 µM, 14 h, 37 °C): spindle-shaped CPP2s | Clobs [1]: 68.5 ± 21.2 mL/min/kg | plasma concentration ([1]; 5 min, individual rats Fig. 4a, unit not printed (µM per Fig. 4b)): 13.9 and 17.5 and 6.9 and 6.5 and 5.5 and 5.1 | half-life ([1]; plasma, 10 mg/kg i.v. bolus): 8 ± 2 min | Cmax ([1]; plasma): 13 ± 6 µM | Vd ([1]; plasma, 10 mg/kg i.v. bolus): 0.958 ± 0.405 L/kg | AUC(0-t) ([1]; plasma, t = 30 min): 3.77 µM·h | MRT ([1]; plasma): 14 min

COCCOCCO[C@@H]1[C@@H](OP(=O)(O)O)[C@H](OCCOCCOC)[C@@H](OP(=O)(O)O)[C@@H](OP(=O)(O)O)[C@H]1OP(=O)(O)O [(OEG2)2-IP4, 4,6-Di-O-(methoxy-diethyleneglycol)-myo-inositol-1,2,3,5-tetrakis(phosphate)]
IC50 (CPP2): 0.81 µM | IC90 (CPP2; as assessed in Fig. 2c, read-out: IC90 (concentration inhibiting 90% 18F-NaF binding)): 8.6 µM | IC90 (CPP2; as used for tissue explants, read-out: IC90): 8.55 µM | 18F-NaF percentage binding to CPP2 (CPP2; concentration 0.75 (unit not given), listed as INS-3001): 105.464% and 94.9958% and 112.003% | 18F-NaF percentage binding to CPP2 (CPP2; concentration 2.5 (unit not given), listed as INS-3001): 107.219% and 104.697% and 115.819% | 18F-NaF percentage binding to CPP2 (CPP2; concentration 7.5 (unit not given), listed as INS-3001): 94.1661% and 101.068% and 121.959% | 18F-NaF percentage binding to CPP2 (CPP2; concentration 25 (unit not given), listed as INS-3001): 108.675% and 100.128% and 123.491% | 18F-NaF percentage binding to CPP2 (CPP2; concentration 75 (unit not given), listed as INS-3001): 113.007% and 98.9202% and 111.871% | 18F-NaF percentage binding to CPP2 (CPP2; concentration 250 (unit not given), listed as INS-3001): 85.5215% and 95.9196% and 111.875% | 18F-NaF percentage binding to CPP2 (CPP2; concentration 750 (unit not given), listed as INS-3001): 70.0481% and 89.1189% and 102.542% | 18F-NaF percentage binding to CPP2 (CPP2; concentration 1750 (unit not given), listed as INS-3001): 31.7703% and 41.2562% and 38.4419% | 18F-NaF percentage binding to CPP2 (CPP2; concentration 7500 (unit not given), listed as INS-3001): 12.1628% and 10.8683% and 17.508% | 18F-NaF percentage binding to CPP2 (CPP2; concentration 25000 (unit not given), listed as INS-3001): 16.4031% and 18.0245% and 30.0027% | 18F-NaF percentage binding to CPP2 (CPP2; concentration 75000 (unit not given), listed as INS-3001): 21.5957% and 22.2508% and 37.2218% | 18F-NaF percentage binding to CPP2 (CPP2; concentration 250000 (unit not given), listed as INS-3001): 17.9597% and 19.9827% and 35.4457% | 18F-NaF percentage binding to CPP2 (CPP2; concentration 750000 (unit not given), replicates Fig. 2c, listed as INS-3001): 28.6563% and 25.7698% and 36.7738% | CPP morphology (TEM) (CPPs; 10 µM): matched those of CPP2s | CPP crystallinity (selected area electron diffraction) (CPPs; 100 µM, 14 h, 37 °C): largely amorphous | CPP morphology (TEM) (CPPs; 100 µM, 14 h, 37 °C): spherical-shaped CPP1s | Clobs [1]: 7.6 ± 0.5 mL/min/kg | fold increase in plasmatic t1/2 vs IP6 ([1]; 10 mg/kg i.v. bolus): ~10 fold | plasma concentration ([1]; 5 min, individual rats Fig. 4a, unit not printed (µM per Fig. 4b), listed as INS-3001): 41.12 and 47.02 and 66.21 | plasma concentration ([1]; 15 min, unit not given, listed as INS-3001): 26.41 and 24.63 and 34.38 | plasma concentration ([1]; 30 min, unit not given, listed as INS-3001): 14.11 and 13.26 and 19.44 | plasma concentration ([1]; 60 min, unit not given, listed as INS-3001): 5.04 and 6 and 6.96 | plasma concentration ([1]; 90 min, unit not given, listed as INS-3001): 2.07 and 1.64 and 1.72 | plasma concentration ([1]; 240 min, unit not given, listed as INS-3001): 0.15 and 0.13 | plasma concentration ([1]; 360 min, unit not given, listed as INS-3001): 0.06 and 0.04 and 0.08 | half-life ([1]; in vivo, 10 mg/kg i.v. bolus): 78 ± 32 min | Cmax ([1]; in vivo): 52 ± 13 µM | Vd ([1]; in vivo, 10 mg/kg i.v. bolus): 0.234 ± 0.032 L/kg | AUC(0-t) ([1]; in vivo, t = 360 min): 26.1 µM·h | MRT ([1]; in vivo): 30 min
